How the values were obtained:
Format in all cases: in vivo, rice
[1] = tested on: seeds of GAT key strains and ZH11; experiment: Tissue culture germination screening on bispyribac-sodium (BS) medium; settings: 1/2MS + 3 μm bispyribac-sodium
Method: In order to identify the working efficiency of screening marker elements in the GAT T1 generation, tissue culture germination was used to screen the T1 generation of key strains and candidate strains.
Therefore, ½MS medium+3 μm bispyribac-sodium was prepared for screening the key strains and the candidate strains of GAT, and the germination results were shown in Table 2.

[2] = tested on: seeds of GAT strains, hybrids with sterile line 1907, ZH11, 9311, MH63; experiment: Detection of the escape rate of GAT pollen: seed screening on BS medium; settings: 21 days; for Survival number / Survival rate: 1/2MS + 3uM BS
From the text: To further detect whether its pollen escapes, in this example, the rice material of common sterile line was pollinated through the strains of the excellent initial maintainer line of GAT, and it was checked whether the hybrid seed has the resistance to bispyribac-sodium (the method is the same as that in Example 5). […] GAT strains (23-2, 88-4) were selected as male parents to pollinate female sterile line 1907, and 221 and 373 hybrid seeds were obtained respectively.

[3] = tested on: GAT T0 generation transformants and wild-type control ZH11 seedlings; experiment: Bispyribac-sodium resistance phenotype, spraying of T0 seedlings
Method: In order to test the working efficiency of screening marker elements in the GAT system, a 600 mg/L bispyribac-sodium solution was prepared with 10% bispyribac-sodium (Nominee, Japan), and 563 GATT0 generation obtained in example 2 and wild-type control ZH11 3 to 5 leaf stage seedlings were sprayed. After spraying, continuous observation was carried out.

[4] = hybrid 1907 × 23-2(T1), total number 211
[5] = hybrid 1907×88-4(T1), total number 363
[6] = strain 23-2(T2), total number 200
[7] = strain 88-4(T2), total number 200
[8] = 563 GAT T0 transformants, 600 mg/L spray, 14th day

With `COc1cc(OC)nc(Oc2cccc(Oc3nc(OC)cc(OC)n3)c2C(=O)O)n1` [bispyribac-sodium] the Germination ([1]; strain 4, 45 seeds) was 24, the Non-germination ([1]; strain 4, 45 seeds) was 21 and the Germination ([1]; strain 7, 29 seeds) was 11. The Non-germination ([1]; strain 7, 29 seeds) was 18, the Germination ([1]; strain 11-1, 58 seeds) was 26 and the Non-germination ([1]; strain 11-1, 58 seeds) was 32. It also gave a Germination ([1]; strain 20, 40 seeds) of 10, a Non-germination ([1]; strain 20, 40 seeds) of 30 and a Germination ([1]; strain 23-2, 30 seeds) of 19. The Non-germination ([1]; strain 23-2, 30 seeds) was 11, the Germination ([1]; strain 23, 110 seeds) was 61 and the Non-germination ([1]; strain 23, 110 seeds) was 49. It also gave a Germination ([1]; strain 28, 59 seeds) of 16, a Non-germination ([1]; strain 28, 59 seeds) of 43 and a Germination ([1]; strain 53-3, 19 seeds) of 7. For the same compound, the Non-germination ([1]; strain 53-3, 19 seeds) was 12, the Germination ([1]; strain 77-2, 46 seeds) was 29 and the Non-germination ([1]; strain 77-2, 46 seeds) was 17. It also gave a Germination ([1]; strain 88-4, 62 seeds) of 30, a Non-germination ([1]; strain 88-4, 62 seeds) of 32 and a Germination ([1]; strain 93-2, 34 seeds) of 15. For the same compound, the Non-germination ([1]; strain 93-2, 34 seeds) was 19, the Germination ([1]; strain 95-2, 35 seeds) was 10 and the Non-germination ([1]; strain 95-2, 35 seeds) was 25. For the same compound, the Germination ([1]; strain 174-3, 15.2 seeds) was 12, the Non-germination ([1]; strain 174-3, 15.2 seeds) was 3.2 and the Germination ([1]; strain 175-4) was 14. The Non-germination ([1]; strain 175-4, 27.3 seeds) was 13.3, the Germination ([1]; strain ZH11 (CK), 40 seeds) was 0 and the Non-germination ([1]; strain ZH11 (CK), 40 seeds) was 40. It also gave a Survival number [2, 4] of 0, a Survival rate [2, 4] of 0.00% and a Survival number [2, 5] of 0. The Survival rate [2, 5] was 0.00%, the germination rate ([2]; hybrid seeds 1907 x GAT strains 23-2, 88-4, 1/2MS+3 uM BS) was 0% and the Survival number [2, 6] was 95. The Survival rate [2, 6] was 47.50%, the Survival number [2, 7] was 83 and the Survival rate [2, 7] was 41.50%. It also gave a Survival number ([2]; strain 9311, total number 200) of 0, a Survival rate ([2]; strain 9311, total number 200) of 0.00% and a Survival number ([2]; strain MH63, total number 200) of 0. It also gave a Survival rate ([2]; strain MH63, total number 200) of 0.00%, a Survival number ([2]; strain ZH11, total number 200) of 0 and a Survival rate ([2]; strain ZH11, total number 200) of 0.00%. For the same compound, the “number of growth inhibited strains (mediumly resistant)” value [3, 8] was 163 strains, the “number of irreversible death or near-death strains (non-resistant or low resistant)” value [3, 8] was 216 strains and the “number of normal growth strains (highly resistant)” value [3, 8] was 184 strains. For the same compound, the “probability of GAT transformants showing normal growth, highly resistant” value ([3]; GAT T0 transformants, 600 mg/L spray) was 32.68%, the “appearance of leaves after spraying” value ([3]; control ZH11, 600 mg/L bispyribac-sodium spray, 3 to 5 leaf stage, third day) was “withered and yellow” and the appearance after spraying ([3]; control ZH11, 600 mg/L bispyribac-sodium spray, 14th day) was “completely died”. The appearance after spraying ([3]; control ZH11, 600 mg/L bispyribac-sodium spray, seventh day) was “withered and yellow and was dying”.

Source: patent US12516346B2, “Intelligent genetic breeding and seed production system for crop cross breeding and hybrid seed production, and application thereof” (Hainan Bolian Technology Co., Ltd., priority 2020, dated 2026)
